Assay results taken from paper PMC11121672, “Screening of Small-Molecule Libraries Using SARS-CoV-2-Derived Sequences Identifies Novel Furin Inhibitors” (International Journal of Molecular Sciences, 2024).

These compounds were tested against T1, Furin (Homo sapiens, UniProt P09958) (assay: fluorogenic AMC peptide cleavage assay, soluble furin in conditioned HEK-293T medium without further purification).
T1 construct: soluble Furin (sFur), truncated before its transmembrane domain (BTMD)
Type: biochemical

T1 sequence (P09958 108-715): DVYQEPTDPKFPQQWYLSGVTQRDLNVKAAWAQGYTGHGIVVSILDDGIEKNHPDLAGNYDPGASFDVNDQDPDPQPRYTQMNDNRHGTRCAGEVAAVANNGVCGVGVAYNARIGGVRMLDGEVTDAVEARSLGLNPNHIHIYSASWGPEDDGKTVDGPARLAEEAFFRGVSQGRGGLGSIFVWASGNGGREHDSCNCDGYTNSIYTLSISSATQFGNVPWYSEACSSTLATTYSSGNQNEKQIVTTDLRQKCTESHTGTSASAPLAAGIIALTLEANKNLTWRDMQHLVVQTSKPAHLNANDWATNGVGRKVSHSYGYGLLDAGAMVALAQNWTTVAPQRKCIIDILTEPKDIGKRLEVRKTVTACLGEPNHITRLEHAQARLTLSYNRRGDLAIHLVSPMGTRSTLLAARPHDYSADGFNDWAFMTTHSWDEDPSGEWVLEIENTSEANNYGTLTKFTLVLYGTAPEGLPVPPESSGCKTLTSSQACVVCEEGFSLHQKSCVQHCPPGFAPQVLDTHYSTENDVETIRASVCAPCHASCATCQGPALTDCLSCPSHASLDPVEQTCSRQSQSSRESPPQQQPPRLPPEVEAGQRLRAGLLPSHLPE

SMILES	IC50 [µM]
CN(C)c1ccc(C=C2SC(N(CCC(=O)O)c3ccc(Cl)cc3)=NC2=O)cc1 [P7, 3-((4-Chlorophenyl)(5-(4-(dimethylamino)benzylidene)-4-oxo-4,5-dihydrothiazol-2-yl)amino)propanoic acid]	62
Cc1ccc(N(CCC(=O)O)C2=NC(=O)C(=Cc3ccc(Br)s3)S2)cc1Cl [P3, 3-((5-((5-Bromothiophen-2-yl)methylene)-4-oxo-4,5-dihydrothiazol-2-yl)(3-chloro-4-methylphenyl)amino)propanoic acid]	35
Cc1ccc(N(CCC(=O)O)C2=NC(=O)C(=Cc3cccs3)S2)cc1Cl [P16, 3-((3-Chloro-4-methylphenyl)(4-oxo-5-(thiophen-2-ylmethylene)-4,5-dihydrothiazol-2-yl)amino)propanoic acid]	79

The compounds below were run against T1, Furin (assay: fluorogenic AMC peptide cleavage assay, […] dose response, not sigmoidal).
Type: cell-based

SMILES	fluorogenic AMC peptide cleavage assay, 2.5-100 μg/mL dose response, not sigmoid
CCOC(=O)C=C(C)n1c2c(=O)c3ccccc3c(=O)c=2oc2ccc([N+](=O)[O-])cc21 [P13, Ethyl 3-(2-nitro-6,11-dioxo-6,11-dihydro-12H-benzo[b]phenoxazin-12-yl)but-2-enoate]	P3, P5, P7, P9, P13, and P16—were confirmed as novel Furin inhibitors, showing typical dose-dependent activity
Cc1ccc(Cl)cc1N(CCC(=O)O)c1nc2c(s1)C(=O)c1ccccc1C2=O [P5, 3-((5-Chloro-2-methylphenyl)(4,9-dioxo-4,9-dihydronaphtho[2,3-d]thiazol-2-yl)amino)propanoic acid]	P3, P5, P7, P9, P13, and P16—were confirmed as novel Furin inhibitors, showing typical dose-dependent activity
O=C(O)CCN(c1ccc(Cl)cc1)c1nc2c(s1)C(=O)c1ccccc1C2=O [P9, 3-((4-Chlorophenyl)(4,9-dioxo-4,9-dihydronaphtho[2,3-d]thiazol-2-yl)amino)propanoic acid]	P3, P5, P7, P9, P13, and P16—were confirmed as novel Furin inhibitors, showing typical dose-dependent activity
